Data set [1] deals with BMMC. Description: Anti-osteoclastogenesis activity in M-CSF/RANKL-induced C57BL/6J mouse BMMC cells assessed as inhibition of osteoclast differentiation at 1 uM incubated for 7 days by TRAP staining based analysis relative to control. To be noted: 168 h, time 7 day. The data set is classed as functional.
In data set [2] the test system is BMMC. Description: Anti-osteoclastogenesis activity in M-CSF/RANKL-induced C57BL/6J mouse BMMC cells assessed as inhibition of osteoclast differentiation at 5 uM incubated for 7 days by TRAP staining based analysis relative to control. As to conditions: 168 h, time 7 day. The data set is classed as functional.
Data set [3] has as its system BMMC. Description: Anti-osteoclastogenesis activity in M-CSF/RANKL-induced C57BL/6J mouse BMMC cells assessed as inhibition of osteoclast differentiation at 10 uM incubated for 7 days by TRAP staining based analysis relative to control. The class given is functional. As to conditions: 168 h, time 7 day.
Data set [4] in a line: Cytotoxicity against M-CSF induced C57BL/6J mouse BMMC cells assessed as cell viability at 10 uM incubated for 48 hrs by CCK-8 assay relative to control. The data set is classed as toxicity, cell-based. To be noted: read-out: Activity.
The nature of data set [5]: Toxicity in ovariectomized female C57BL/6 mouse assessed as reduction in body weight at 25 ug/kg, sc administered every day for 6 weeks. As to conditions: in vivo, 0.025 mg/kg, 1008 h, dose 25 µg/kg. The data set is classed as organism-based.
Data set [6] relates to Mus musculus. Description: Anti-osteoporosis activity in ovariectomized C57BL/6 mouse assessed as prevention of bone loss by measuring increase in BV/TV at 25 ug/kg, sc administered every day for 6 weeks by micro-CT analysis relative to control. The data set is classed as functional. To be noted: dose 25 µg/kg.
Data set [7] deals with Mus musculus. Put plainly: Anti-osteoporosis activity in ovariectomized C57BL/6 mouse assessed as prevention of bone loss by measuring increase in trabecular number at 25 ug/kg, sc administered every day for 6 weeks by micro-CT analysis relative to control. The class given is functional.
Data set [8] relates to Mus musculus. Put plainly: Anti-osteoporosis activity in ovariectomized C57BL/6 mouse assessed as prevention of bone loss by measuring increase in trabecular thickness at 25 ug/kg, sc administered every day for 6 weeks by micro-CT analysis relative to control. The class given is functional.
Data set [9] deals with Mus musculus. Put plainly: Anti-osteoporosis activity in ovariectomized C57BL/6 mouse assessed as prevention of bone loss by measuring decrease in trabecular spacing at 25 ug/kg, sc administered every day for 6 weeks by micro-CT analysis relative to control. The class given is functional. More on the design: scale not given: the % may be the effect or the level left.
Data set [10] has as its system BMMC. Description: Anti-osteoclastogenesis activity in M-CSF/RANKL-induced C57BL/6J mouse BMMC cells assessed as inhibition of osteoclast differentiation incubated for 7 days by TRAP staining based analysis. The data set is classed as functional, cell-based. As to conditions: 168 h.

Experimental findings from ChEMBL document CHEMBL5506037, “Synthesis of Heterocyclic Ring-Fused Bisnoralcohol Derivatives as Novel Small-Molecule Antiosteoporosis Agents” (J Med Chem, 2024) are described below.

With `Cc1nc2c(o1)C(C)(C)C1=CC[C@H]3[C@@H]4CC[C@H]([C@H](C)CO)[C@@]4(C)CC[C@@H]3[C@@]1(C)C2`, in the data set with BMMC [1], the inhibition at 1 µM amounted to 43%. Also, in the data set with BMMC [2], the inhibition at 5 µM stood at 73.8%. Further, the inhibition at 10 µM with BMMC [3] was determined as 89.8%. Further, in [4], the viability at 48 h, 10 µM was at least 100%.
On the same counts, the results for `C[C@H](CO)[C@H]1CC[C@H]2[C@@H]3CC=C4C(C)(C)c5c(cnn5-c5ccccc5)C[C@]4(C)[C@H]3CC[C@]12C` are 0%, 0%, 18.9% and at least 100%.
As for `CC[C@H](C)[C@H](NC(=O)[C@H](CCC(=O)O)NC(=O)[C@H](CO)NC(=O)[C@@H](NC(=O)[C@@H](N)CO)C(C)C)C(=O)N[C@@H](CCC(N)=O)C(=O)N[C@@H](CC(C)C)C(=O)N[C@@H](CCSC)C(=O)N[C@@H](Cc1cnc[nH]1)C(=O)N[C@@H](CC(N)=O)C(=O)N[C@@H](CC(C)C)C(=O)NCC(=O)N[C@@H](CCCCN)C(=O)N[C@@H](Cc1cnc[nH]1)C(=O)N[C@@H](CC(C)C)C(=O)N[C@@H](CC(N)=O)C(=O)N[C@@H](CO)C(=O)N[C@@H](CCSC)C(=O)N[C@@H](CCC(=O)O)C(=O)N[C@@H](CCCNC(=N)N)C(=O)N[C@H](C(=O)N[C@@H](CCC(=O)O)C(=O)N[C@@H](Cc1c[nH]c2ccccc12)C(=O)N[C@@H](CC(C)C)C(=O)N[C@@H](CCCNC(=N)N)C(=O)N[C@@H](CCCCN)C(=O)N[C@@H](CCCCN)C(=O)N[C@@H](CC(C)C)C(=O)N[C@@H](CCC(N)=O)C(=O)N[C@@H](CC(=O)O)C(=O)N[C@H](C(=O)N[C@@H](Cc1cnc[nH]1)C(=O)N[C@@H](CC(N)=O)C(=O)N[C@@H](Cc1ccccc1)C(=O)O)C(C)C)C(C)C` [TERIPARATIDE], the Activity entry was “Non-Toxic” in [5]; 81.68% in the data set on Mus musculus [6]; 41.75% with Mus musculus [7]; 86.08% with Mus musculus [8]; 52.76% with Mus musculus [9].
Consider `C[C@H](CO)[C@H]1CC[C@H]2[C@@H]3CCC4=CC(=O)CC[C@]4(C)[C@H]3CC[C@]12C`, for which the inhibition at 5 µM in the data set on BMMC [2] stood at 78.6%. Further, the inhibition at 10 µM in the data set with BMMC [3] worked out at 100%. In data set [4], the viability at 48 h, 10 µM was at least 100%. Moreover, in the data set on BMMC [10], the 50% inhibitory concentration (IC50) stood at 2320 nM.
Regarding `C[C@H](CO)[C@H]1CC[C@H]2[C@@H]3CC=C4C(C)(C)c5nonc5C[C@]4(C)[C@H]3CC[C@]12C`, in the data set on BMMC [1], the inhibition at 1 µM is 42.4%. Besides, the inhibition at 5 µM in the data set with BMMC [2] came out at 90.5%. In addition, the inhibition at 10 µM in the data set on BMMC [3] came to 100%. Further, the viability at 48 h, 10 µM in data set [4] was at least 100%.
